Our source for the GI50 and TGI values is PubChem BioAssay (NCI).

Test systems include OVCAR-8 ovarian; HCT-116 colon; HT29 colon; PC-3 prostate; SK-OV-3 ovarian; CAKI-1 renal; T-47D breast; HS 578T breast; MDA-MB-435; HCC-2998 colon.
Holding throughout (experiment): growth of human tumour cells (NCI), 48 h

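A five-concentration, 48-hour dose response in 96-well plates underlies each endpoint, interpolated linearly between surrounding concentrations. Here, GI50 denotes the concentration required for 50% inhibition of growth. TGI denotes the concentration required for complete inhibition of growth.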

For the compound `O=C(Nc1ccc(Cl)c(C(F)(F)F)c1)Nc1ccc(-c2cccnc2)cc1N1CCC(CO)CC1`, the GI50 in the experiment with OVCAR-8 ovarian was 3.75 µM; with HCT-116 colon, 2.53 µM; in the experiment with HT29 colon, 1.92 µM; in the experiment on PC-3 prostate, 1.87 µM; with SK-OV-3 ovarian, 2.22 µM; in the experiment with CAKI-1 renal, 2.32 µM. Further, the GI50 in the experiment on T-47D breast is 2.09 µM; in the experiment with HS 578T breast it was 2.79 µM; in the experiment with MDA-MB-435 it was 1.91 µM; in the experiment with HCC-2998 colon, 2.31 µM. The TGI was 35.4 µM in the experiment on OVCAR-8 ovarian; 6.9 µM in the experiment on HCT-116 colon; 4.02 µM with HT29 colon; 5.37 µM with PC-3 prostate; 6.59 µM in the experiment with SK-OV-3 ovarian; 16 µM in the experiment with CAKI-1 renal. In addition, the TGI in the experiment on T-47D breast was found to be 7.76 µM; in the experiment with HS 578T breast, 8.46 µM; in the experiment on MDA-MB-435 it was 4.53 µM; with HCC-2998 colon it was 4.9 µM.

`COc1cc2c(/C=C3\C(=O)N(C)c4ccccc43)c[nH]c2cc1C`: the GI50 with OVCAR-8 ovarian is 4.14 µM; with HCT-116 colon, 0.369 µM; in the experiment on HT29 colon, 0.36 µM; in the experiment on PC-3 prostate it was 2.56 µM; in the experiment on SK-OV-3 ovarian it was 8.35 µM; in the experiment with CAKI-1 renal, 2.01 µM. Moreover, the GI50 was over 39.3 µM in the experiment with T-47D breast, 3.61 µM with HS 578T breast, 1.62 µM in the experiment with MDA-MB-435 and 1.79 µM with HCC-2998 colon. Moreover, the TGI in the experiment with OVCAR-8 ovarian is 45.1 µM; in the experiment on HCT-116 colon, over 41.7 µM; in the experiment with PC-3 prostate, over 100 µM; in the experiment with SK-OV-3 ovarian, over 100 µM; in the experiment on CAKI-1 renal, 51.3 µM; in the experiment with T-47D breast, over 100 µM. The TGI was over 38.8 µM in the experiment on HS 578T breast, 12.1 µM in the experiment with MDA-MB-435 and over 68.3 µM in the experiment on HCC-2998 colon.

For the compound `ClCc1ccccc1Cn1cnc2nc(Cl)nc(Cl)c21`, the GI50 in the experiment with OVCAR-8 ovarian was 2.54 µM; in the experiment with HCT-116 colon, 0.115 µM; in the experiment with HT29 colon it was 0.412 µM; with PC-3 prostate, 0.323 µM; with SK-OV-3 ovarian it was 4.35 µM; with CAKI-1 renal, 7.16 µM. For the same compound, the GI50 is 0.59 µM in the experiment on T-47D breast, 0.331 µM in the experiment on HS 578T breast, 6.04 µM with MDA-MB-435 and 3.96 µM in the experiment with HCC-2998 colon. Moreover, the TGI is 8.88 µM in the experiment on OVCAR-8 ovarian; 0.236 µM in the experiment on HCT-116 colon; over 100 µM with HT29 colon; 1.81 µM in the experiment on PC-3 prostate; 15.4 µM in the experiment on SK-OV-3 ovarian; 18.5 µM in the experiment on CAKI-1 renal. Moreover, the TGI is 5.24 µM with T-47D breast, 1.22 µM in the experiment on HS 578T breast, 13.2 µM with MDA-MB-435 and 8.56 µM in the experiment on HCC-2998 colon.

For the compound `CN1CCN(C)C1c1ccc(C2N(C)CCN2C)cc1`, the GI50 with OVCAR-8 ovarian was 38.4 µM; in the experiment with HCT-116 colon, 17.8 µM; with HT29 colon it was 21.2 µM; in the experiment with PC-3 prostate, over 100 µM; in the experiment on SK-OV-3 ovarian, over 100 µM; in the experiment on CAKI-1 renal, over 100 µM. The GI50 is 20.4 µM in the experiment on T-47D breast, 64 µM with HS 578T breast, 34.5 µM in the experiment on MDA-MB-435 and 40.5 µM in the experiment with HCC-2998 colon. The TGI was over 100 µM with OVCAR-8 ovarian; 38 µM with HCT-116 colon; 56.4 µM in the experiment on HT29 colon; over 100 µM with PC-3 prostate; over 100 µM in the experiment with SK-OV-3 ovarian; over 100 µM in the experiment with CAKI-1 renal. In addition, the TGI with T-47D breast, in the experiment with HS 578T breast, in the experiment with MDA-MB-435 and with HCC-2998 colon was over 100 µM throughout.

Take `OCc1ccc(-c2nc(-c3ccc4c(c3)OCO4)c(-c3ccccn3)[nH]2)cc1`: the GI50 with OVCAR-8 ovarian was over 25 µM; in the experiment with HCT-116 colon, over 25 µM; in the experiment with HT29 colon, over 25 µM; with PC-3 prostate, over 25 µM; in the experiment on SK-OV-3 ovarian it was over 25 µM; in the experiment on CAKI-1 renal, 11.4 µM. Also, the GI50 in the experiment on T-47D breast was over 23.2 µM; in the experiment on HS 578T breast, over 25 µM; in the experiment with MDA-MB-435, over 25 µM; in the experiment on HCC-2998 colon, over 25 µM. Moreover, the TGI in the experiment with OVCAR-8 ovarian, in the experiment with HCT-116 colon, with HT29 colon, in the experiment with PC-3 prostate, in the experiment with SK-OV-3 ovarian and in the experiment with CAKI-1 renal was over 25 µM throughout. Besides, the TGI in the experiment on T-47D breast, in the experiment on HS 578T breast, with MDA-MB-435 and in the experiment on HCC-2998 colon was over 25 µM throughout.

As for `O=Cc1ccc(-c2ccc(-c3nc4ccccc4s3)cc2)o1`, the GI50 with OVCAR-8 ovarian is 70.7 µM; with HCT-116 colon, over 100 µM; in the experiment on HT29 colon it was over 100 µM; with PC-3 prostate, 45.2 µM; in the experiment on SK-OV-3 ovarian, over 100 µM; in the experiment on CAKI-1 renal it was over 100 µM. In addition, the GI50 in the experiment on T-47D breast, in the experiment with HS 578T breast, in the experiment on MDA-MB-435 and with HCC-2998 colon was over 100 µM throughout. In addition, the TGI in the experiment on OVCAR-8 ovarian, in the experiment with HCT-116 colon, with HT29 colon, in the experiment on PC-3 prostate, in the experiment on SK-OV-3 ovarian and in the experiment on CAKI-1 renal was over 100 µM throughout. The TGI with T-47D breast, in the experiment with HS 578T breast, in the experiment with MDA-MB-435 and in the experiment with HCC-2998 colon was over 100 µM throughout.

As to `COc1ccc(-c2cnc(-c3ccc(OC)cc3)n2-c2cc(OC)c(OC)c(OC)c2)cc1`, the GI50 with OVCAR-8 ovarian is 19.7 µM; with HCT-116 colon it was 30.9 µM; in the experiment with HT29 colon it was 47.7 µM; in the experiment on PC-3 prostate, 29.4 µM; in the experiment with SK-OV-3 ovarian, 23.1 µM; in the experiment on CAKI-1 renal, 23.8 µM. Further, the GI50 in the experiment with T-47D breast is 39.4 µM; with HS 578T breast it was 22.9 µM; in the experiment on MDA-MB-435, 31.2 µM; in the experiment on HCC-2998 colon, 45.7 µM. Also, the TGI with OVCAR-8 ovarian was 50.7 µM; in the experiment with HCT-116 colon it was over 100 µM; in the experiment on HT29 colon, over 100 µM; in the experiment on PC-3 prostate it was over 100 µM; in the experiment on SK-OV-3 ovarian, 72.3 µM; in the experiment on CAKI-1 renal, 80.2 µM. The TGI with T-47D breast is over 100 µM; with HS 578T breast it was 64.2 µM; in the experiment on MDA-MB-435 it was over 100 µM; in the experiment with HCC-2998 colon, over 100 µM.

Take `Nc1nc(Sc2ccc([N+](=O)[O-])c3nonc23)c2ncn(C3OC(CO)C(O)C3O)c2n1` (centres undefined): the GI50 is 0.794 µM in the experiment on OVCAR-8 ovarian; 0.428 µM with HCT-116 colon; 0.846 µM with HT29 colon; 3.24 µM in the experiment on PC-3 prostate; 0.651 µM in the experiment with SK-OV-3 ovarian; 0.669 µM in the experiment on CAKI-1 renal. In addition, the GI50 was 1.07 µM with T-47D breast, 7.89 µM in the experiment on HS 578T breast, 1.67 µM in the experiment with MDA-MB-435 and 0.777 µM in the experiment with HCC-2998 colon. The TGI in the experiment with OVCAR-8 ovarian was over 46 µM; in the experiment on HCT-116 colon it was 13.6 µM; in the experiment on HT29 colon, 16.2 µM; in the experiment with PC-3 prostate it was 26.6 µM; in the experiment on SK-OV-3 ovarian it was 14.5 µM; in the experiment with CAKI-1 renal it was over 100 µM. Moreover, the TGI was over 49.5 µM with T-47D breast, 46.3 µM in the experiment on HS 578T breast, over 57.1 µM with MDA-MB-435 and 3.49 µM in the experiment with HCC-2998 colon.

For the compound `COc1cccc(S(=O)(=O)NC2=NCCN2C(=S)SN2CCn3c2nsc3=S)c1`, the GI50 with OVCAR-8 ovarian is 44.4 µM; in the experiment with HCT-116 colon it was 16.4 µM; with HT29 colon, 40.2 µM; in the experiment on PC-3 prostate it was 36.2 µM; with SK-OV-3 ovarian it was 20.4 µM; with CAKI-1 renal, 32 µM. The GI50 in the experiment on T-47D breast was 23.3 µM; in the experiment on HS 578T breast, 90.3 µM; in the experiment with MDA-MB-435, 37.3 µM; with HCC-2998 colon, 41.5 µM. Also, the TGI with OVCAR-8 ovarian is over 100 µM; in the experiment on HCT-116 colon it was 33 µM; with HT29 colon, over 100 µM; in the experiment on PC-3 prostate, over 100 µM; in the experiment on SK-OV-3 ovarian it was 99.1 µM; in the experiment with CAKI-1 renal, 66.2 µM. The TGI is 51 µM in the experiment on T-47D breast, over 100 µM in the experiment with HS 578T breast, over 100 µM in the experiment with MDA-MB-435 and over 100 µM in the experiment with HCC-2998 colon.

For the compound `CCCCCSc1ccc2nc(NC(=O)OCC)sc2c1`, the GI50 in the experiment on OVCAR-8 ovarian was 4.85 µM; with HCT-116 colon it was 0.466 µM; in the experiment on HT29 colon, 0.348 µM; in the experiment with PC-3 prostate it was 0.798 µM; in the experiment on SK-OV-3 ovarian, 0.535 µM; with CAKI-1 renal, 0.626 µM. Further, the GI50 in the experiment on T-47D breast was 0.583 µM; with HS 578T breast, 0.944 µM; in the experiment with MDA-MB-435, 0.194 µM; in the experiment with HCC-2998 colon it was 4.88 µM. Also, the TGI with OVCAR-8 ovarian, in the experiment on HCT-116 colon, in the experiment with HT29 colon, in the experiment on PC-3 prostate, in the experiment with SK-OV-3 ovarian and in the experiment on CAKI-1 renal was over 100 µM throughout. Also, the TGI in the experiment on T-47D breast is over 100 µM; with HS 578T breast, over 100 µM; in the experiment with MDA-MB-435, 0.763 µM; with HCC-2998 colon it was over 100 µM.

Take `CCOC(=O)Cc1csc(NC(=O)C(OC(=O)c2ccc(Cl)cc2)c2ccccc2)n1` (centres undefined): the GI50 in the experiment on OVCAR-8 ovarian is 64.8 µM; in the experiment with HCT-116 colon, 29 µM; in the experiment with HT29 colon it was 27 µM; in the experiment on PC-3 prostate, 35.1 µM; in the experiment on SK-OV-3 ovarian it was over 100 µM; with CAKI-1 renal, 61.9 µM. The GI50 in the experiment on T-47D breast was 63.1 µM; with HS 578T breast, 54.8 µM; in the experiment with MDA-MB-435 it was 28.1 µM; in the experiment with HCC-2998 colon, 50.9 µM. Besides, the TGI with OVCAR-8 ovarian is over 100 µM; with HCT-116 colon, over 100 µM; in the experiment with HT29 colon, 88 µM; in the experiment on PC-3 prostate it was over 100 µM; with SK-OV-3 ovarian, over 100 µM; in the experiment on CAKI-1 renal it was over 100 µM. In addition, the TGI in the experiment on T-47D breast is over 100 µM; in the experiment with HS 578T breast, over 100 µM; in the experiment on MDA-MB-435 it was 75.6 µM; with HCC-2998 colon it was over 100 µM.
